From patent US20230120142A1, “COMPOSITIONS AND METHODS FOR THE TREATMENT OF INTRACELLULAR BACTERIAL INFECTIONS” (Endolytix Technology, Inc., priority 2020, published 2023) come the findings set out here.

The assay relates to M. abscessus cells. Put plainly: Cell growth assay of ABIα plus antibiotic, Fractional Inhibitory Concentration (FIC) index. It is filed as cell-based, Mycobacterium abscessus. The settings on record: antibiotic in combination with ABIα cocktail; FIG. 5.

Regarding `CO[C@@]1(NC(=O)Cc2cccs2)C(=O)N2C(C(=O)O)=C(COC(N)=O)CS[C@@H]21` [cefoxitin], the “interaction by Fractional Inhibitory Concentration (FIC) index on attenuation of M. abscessus growth” value is given as “synergistic effects”.
The entry for `C[C@@H](O)[C@H]1C(=O)N2C(C(=O)[O-])=C(SC3Cn4cnc[n+]4C3)[C@H](C)[C@H]12` (stereo partly drawn) [biapenem] is “synergistic effects”.
The entry for `NCC[C@H](O)C(=O)N[C@@H]1C[C@H](N)[C@@H](O[C@H]2O[C@H](CN)[C@@H](O)[C@H](O)[C@H]2O)[C@H](O)[C@H]1O[C@H]1O[C@H](CO)[C@@H](O)[C@H](N)[C@H]1O` [amikacin] is “synergistic effects”.
